One assay deals with FGFR1 (Homo sapiens, UniProt P11362). The experiment in a line: Mobility shift assay, FGFR1 kinase inhibition.
The target of another assay is FGFR3 (Homo sapiens, UniProt P22607). Description: Mobility shift assay, FGFR3 kinase inhibition.
In a further assay the target is FGFR2 (Homo sapiens, UniProt P21802). The experiment in a line: Mobility shift assay, FGFR2 kinase inhibition.
Another assay has as its target FGFR4 (Homo sapiens, UniProt P22455). Description: Mobility shift assay, FGFR4 kinase inhibition.
In assay [1] the test system is colon cancer cells HCT-116. Description: MTT proliferation assay on colon cancer cells HCT-116. The format is cell-based. Conditions: 3-100 µM, 72 h, dose-dependent, FIG. 4. As for the experimental part:
(§1) An MTT method was used for determination. An experimental method is briefly described as follows. A test compound 23 was first dissolved in DMSO to prepare a stock solution, and then the stock solution was subjected to gradient dilution with a corresponding cell culture medium to prepare a test sample, where a final concentration of the compound was in the range of 3-100 uM. Cells in a logarithmic culture stage were inoculated into a 96-well cell culture plate at an appropriate density, cultured overnight under corresponding conditions, and then continuously cultured for 72 h after the test compound sample was added. After the culture was completed, an appropriate volume of an MTT detection solution was added to each well, incubation was performed at 37°C for 1-4 h, and the culture medium was carefully discarded. […].
(Formazan colour is commonly taken as a measure of viable cells.)

The next assay concerns colon cancer cells SW480. The experiment in a line: MTT proliferation assay on colon cancer cells SW480. The format is cell-based. Conditions: 3-100 µM, 72 h, dose-dependent, FIG. 5. As for the experimental part:
as §1

For a further assay, the system named is colon cancer cells RKO. Description: MTT proliferation assay on colon cancer cells RKO. The format is cell-based. Conditions: 3-100 µM, 72 h, dose-dependent, FIG. 6. As for the experimental part:
as §1

Where two headings read alike, the source gives them in different places.

FGFR3, sequence (P22607 23-806): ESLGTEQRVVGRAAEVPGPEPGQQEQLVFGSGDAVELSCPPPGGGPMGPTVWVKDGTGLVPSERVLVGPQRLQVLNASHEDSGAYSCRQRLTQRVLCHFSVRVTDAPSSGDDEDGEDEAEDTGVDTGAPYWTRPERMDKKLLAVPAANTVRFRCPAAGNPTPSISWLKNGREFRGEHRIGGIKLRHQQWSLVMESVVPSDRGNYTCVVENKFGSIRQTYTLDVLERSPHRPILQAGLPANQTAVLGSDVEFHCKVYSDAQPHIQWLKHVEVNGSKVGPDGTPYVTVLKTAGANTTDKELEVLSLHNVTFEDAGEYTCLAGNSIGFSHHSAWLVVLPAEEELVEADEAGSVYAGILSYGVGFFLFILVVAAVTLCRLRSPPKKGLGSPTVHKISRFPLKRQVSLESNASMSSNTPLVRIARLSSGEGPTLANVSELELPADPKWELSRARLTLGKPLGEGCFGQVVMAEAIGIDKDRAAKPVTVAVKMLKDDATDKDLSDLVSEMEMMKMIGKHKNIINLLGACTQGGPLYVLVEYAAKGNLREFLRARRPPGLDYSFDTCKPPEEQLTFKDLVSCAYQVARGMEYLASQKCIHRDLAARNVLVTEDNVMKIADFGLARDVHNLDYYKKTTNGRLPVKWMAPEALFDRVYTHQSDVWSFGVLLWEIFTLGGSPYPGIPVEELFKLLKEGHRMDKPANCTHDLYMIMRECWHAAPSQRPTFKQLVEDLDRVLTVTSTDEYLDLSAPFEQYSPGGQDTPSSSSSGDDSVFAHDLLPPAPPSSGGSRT
FGFR1, sequence (P11362 22-822): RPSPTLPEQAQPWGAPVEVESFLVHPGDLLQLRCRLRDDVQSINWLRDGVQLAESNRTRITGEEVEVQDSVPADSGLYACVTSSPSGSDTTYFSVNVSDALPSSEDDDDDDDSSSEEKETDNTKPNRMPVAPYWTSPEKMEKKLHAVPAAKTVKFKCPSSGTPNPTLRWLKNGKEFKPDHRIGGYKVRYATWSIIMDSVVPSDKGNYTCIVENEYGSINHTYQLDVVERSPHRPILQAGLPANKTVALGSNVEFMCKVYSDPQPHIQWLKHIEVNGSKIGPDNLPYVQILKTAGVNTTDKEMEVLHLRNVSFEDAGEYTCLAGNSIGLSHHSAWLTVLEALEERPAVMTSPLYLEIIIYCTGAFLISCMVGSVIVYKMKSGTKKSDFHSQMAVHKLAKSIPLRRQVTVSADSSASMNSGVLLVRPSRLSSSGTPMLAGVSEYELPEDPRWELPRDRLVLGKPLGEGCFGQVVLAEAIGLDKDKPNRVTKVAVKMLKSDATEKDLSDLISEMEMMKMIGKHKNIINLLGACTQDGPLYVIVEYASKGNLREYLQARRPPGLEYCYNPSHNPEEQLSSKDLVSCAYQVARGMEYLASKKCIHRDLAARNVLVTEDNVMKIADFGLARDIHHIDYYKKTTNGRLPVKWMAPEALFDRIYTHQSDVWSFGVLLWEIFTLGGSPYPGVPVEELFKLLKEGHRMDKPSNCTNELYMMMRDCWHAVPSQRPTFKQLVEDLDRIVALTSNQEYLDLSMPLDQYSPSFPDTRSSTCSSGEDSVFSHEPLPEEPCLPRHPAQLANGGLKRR
FGFR2, sequence (P21802 22-821): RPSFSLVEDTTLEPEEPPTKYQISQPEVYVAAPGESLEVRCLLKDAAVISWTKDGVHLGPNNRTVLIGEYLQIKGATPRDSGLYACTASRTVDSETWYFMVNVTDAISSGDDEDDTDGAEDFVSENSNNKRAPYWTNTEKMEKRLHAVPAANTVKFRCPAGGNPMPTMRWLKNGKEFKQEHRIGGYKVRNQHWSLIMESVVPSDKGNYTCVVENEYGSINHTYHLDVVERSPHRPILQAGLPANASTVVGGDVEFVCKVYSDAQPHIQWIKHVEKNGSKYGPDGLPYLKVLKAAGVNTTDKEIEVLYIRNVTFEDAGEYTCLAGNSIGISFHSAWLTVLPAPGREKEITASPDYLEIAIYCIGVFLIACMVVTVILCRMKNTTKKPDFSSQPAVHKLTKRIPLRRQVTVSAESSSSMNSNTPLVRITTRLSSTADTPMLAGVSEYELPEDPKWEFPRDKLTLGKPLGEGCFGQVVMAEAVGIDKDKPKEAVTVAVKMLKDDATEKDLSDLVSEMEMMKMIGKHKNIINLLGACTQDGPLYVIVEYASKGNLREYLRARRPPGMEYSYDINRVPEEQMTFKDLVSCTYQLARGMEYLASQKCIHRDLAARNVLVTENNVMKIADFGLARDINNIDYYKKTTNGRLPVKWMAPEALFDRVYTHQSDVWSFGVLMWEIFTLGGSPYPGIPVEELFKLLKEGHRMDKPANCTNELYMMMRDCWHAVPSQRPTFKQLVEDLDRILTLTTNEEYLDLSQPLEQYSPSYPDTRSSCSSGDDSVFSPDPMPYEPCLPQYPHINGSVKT
FGFR4, sequence (P22455 22-802): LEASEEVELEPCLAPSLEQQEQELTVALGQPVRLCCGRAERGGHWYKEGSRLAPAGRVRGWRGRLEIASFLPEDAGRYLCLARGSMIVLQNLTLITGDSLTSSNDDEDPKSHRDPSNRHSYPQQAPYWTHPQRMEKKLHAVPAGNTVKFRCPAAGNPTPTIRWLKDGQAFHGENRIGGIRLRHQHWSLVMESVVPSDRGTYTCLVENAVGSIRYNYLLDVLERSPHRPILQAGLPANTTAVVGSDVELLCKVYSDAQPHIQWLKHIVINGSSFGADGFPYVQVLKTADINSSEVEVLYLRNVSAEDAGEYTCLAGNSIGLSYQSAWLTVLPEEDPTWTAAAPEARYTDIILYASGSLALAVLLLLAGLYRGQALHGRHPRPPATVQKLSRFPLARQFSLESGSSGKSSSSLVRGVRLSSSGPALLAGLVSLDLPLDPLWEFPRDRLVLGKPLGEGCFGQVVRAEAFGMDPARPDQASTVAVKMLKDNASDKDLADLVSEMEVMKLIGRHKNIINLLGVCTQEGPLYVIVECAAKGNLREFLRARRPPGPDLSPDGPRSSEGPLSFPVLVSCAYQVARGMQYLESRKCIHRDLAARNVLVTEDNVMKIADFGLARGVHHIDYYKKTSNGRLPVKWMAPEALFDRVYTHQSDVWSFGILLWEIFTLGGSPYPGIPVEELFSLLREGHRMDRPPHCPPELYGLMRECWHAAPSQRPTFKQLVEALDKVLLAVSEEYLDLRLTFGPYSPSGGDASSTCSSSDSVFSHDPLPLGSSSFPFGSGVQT
Experimental for FGFR1: (§2) A specific experimental method is as follows.
(§3) (1) A 1×Kinase buffer was prepared. […] (3) A kinase solution with a 2.5 times final concentration was prepared with the 1×Kinase buffer. (4) 10 µL of the kinase solution with a 2.5 times final concentration was added to compound holes and positive control holes, respectively; and 10 µL of the 1×Kinase buffer was added to negative control holes. (5) Centrifugation was performed at 1,000 rpm for 30 s, the reaction plate was shaken for even mixing, and incubation was performed at room temperature for 60 min. (6) A mixed solution, with a 25/15 times final concentration, of ATP and Kinase substrate22 was prepared with the 1×Kinase buffer. (7) 15 µL of a mixed solution, with a 5/3 times final concentration, of ATP and a substrate was added to carry out an initial reaction. (8) A 384-well plate was centrifuged at 1,000 rpm for 30 s and shaken for even mixing, and incubation was performed at room temperature for 30 min. (9) 30 µL of a terminal detection solution was added to stop a kinase reaction, centrifugation was performed at 1,000 rpm for 30 s, and shaking was performed for even mixing. (10) A conversion rate was read with Caliper EZ Reader.
(§4) A dose-effect curve is fitted as follows.
(§5) With a concentration log value as an X axis and an inhibition rate percentage as a Y axis, the dose-effect curve was fitted by log (inhibitor) vs. response-Variable slope of analysis software GraphPad Prism 5, so as to obtain an IC50 value of each compound on enzyme activity. A calculation formula is: Y=Bottom+(Top-Bottom)/(1+10^((LogIC50-X)*HillSlope)).
Experimental for FGFR2: as §2, §3, §4, §5
Experimental for FGFR3: as §2, §3, §4, §5
Experimental for FGFR4: as §2, §3, §4, §5

The term IC50 denotes the concentration at which inhibition is half-maximal. `C=CC(=O)Nc1cccc(C)c1Nc1ncc2cc(-c3c(Cl)c(OC)cc(OC)c3Cl)ccc2n1` [BLU9931, reference compound]: the IC50 on FGFR1 (read-out: IC50 (nM) FGFR1, Mobility shift assay) came out at 582 nM; at FGFR3, 0.193 µM; at FGFR2 it was 0.436 µM.

`C=CC(=O)Nc1cccc(C)c1Nc1cc2c(cn1)cc(-c1cc(OC)cc(OC)c1)c(=O)n2CCCN1CCCCC1` [Compound 22, N-(2-((3-(3,5-dimethoxyphenyl)-2-oxo-1-(3-(piperidin-1-yl)propyl)-1,2-dihydro-1,6-naphthyridin-7-yl)amino)-3-methylphenyl)acrylamide]: the 50% inhibitory concentration (IC50) was 0.0098 µM at FGFR4, above 5000 nM on FGFR1, above 5 µM on FGFR3 and above 5 µM on FGFR2.

For the compound `C=CC(=O)Nc1cccc(C)c1Nc1cc2c(cn1)cc(-c1c(Cl)c(OC)cc(OC)c1Cl)c(=O)n2CCCN1CCCCC1` [Compound 23, N-(2-((3-(2,6-dichloro-3,5-dimethoxyphenyl)-2-oxo-1-(3-(piperidin-1-yl)propyl)-1,2-2H-1,6-naphthyridin-7-yl)amino)-3-methylphenyl)acrylamide], the “inhibition of proliferation of colon cancer cells HCT-116” value in assay [1] is “can inhibit proliferation”. Also, the IC50 on FGFR4 is 0.0037 µM; on FGFR1 it was above 5000 nM; on FGFR3, above 5 µM; on FGFR2 it was above 5 µM. Further, in the assay on colon cancer cells SW480, the “inhibition of proliferation of colon cancer cells SW480” value was “can inhibit proliferation”. Moreover, the “inhibition of proliferation of colon cancer cells RKO” value with colon cancer cells RKO is recorded as “can inhibit proliferation”.

Consider `C=CC(=O)Nc1cccc(C)c1Nc1cc2c(cn1)cc(-c1cc(OC)cc(OC)c1)c(=O)n2CCCN1CCN(C)CC1` [Compound 24, N-(2-((3-(3,5-dimethoxyphenyl)-2-oxo-1-(3-(4-methylpiperazin-1-yl)propyl)-1,2-dihydro-1,6-naphthyridin-7-yl)amino)-3-methylphenyl)acrylamide], for which the IC50 on FGFR4 is 0.0344 µM; at FGFR1, above 5000 nM; at FGFR3, above 5 µM; at FGFR2 it was above 5 µM.

As to `C=CC(=O)Nc1cccc(C)c1Nc1cc2c(cn1)cc(-c1c(Cl)c(OC)cc(OC)c1Cl)c(=O)n2CCCN1CCN(C)CC1` [Compound 25, N-(2-((3-(2,6-dichloro-3,5-dimethoxyphenyl)-2-oxo-1-(3-(4-methylpiperazin-1-yl)propyl)-1,2-2H-1,6-naphthyridin-7-yl)amino)-3-methylphenyl)acrylamide], the 50% inhibitory concentration (IC50) is 0.0058 µM at FGFR4, above 5000 nM on FGFR1, above 5 µM on FGFR3 and above 5 µM at FGFR2.

Turning to `C=CC(=O)Nc1cccc(C)c1Nc1cc2c(cn1)cc(-c1cc(OC)cc(OC)c1)c(=O)n2CCCN1CCOCC1` [Compound 26, N-(2-((3-(3,5-dimethoxyphenyl)-1-(3-morpholinopropyl)-2-oxo-1,2-dihydro-1,6-naphthyridin-7-yl)amino)-3-methylphenyl)acrylamide], the IC50 on FGFR1 is above 5000 nM; on FGFR3, above 5 µM; on FGFR2, above 5 µM.

With `C=CC(=O)Nc1cccc(C)c1Nc1cc2c(cn1)cc(-c1c(Cl)c(OC)cc(OC)c1Cl)c(=O)n2CCCN1CCOCC1` [Compound 27, N-(2-((3-(2,6-dichloro-3,5-dimethoxyphenyl)-1-(3-morpholinopropyl)-2-oxo-1,2-2H-1,6-naphthyridin-7-yl)amino)-3-methylphenyl)acrylamide], the IC50 at FGFR4 is 0.0044 µM; on FGFR1, above 5000 nM; on FGFR3, above 5 µM; on FGFR2, above 5 µM.

Turning to `C=CC(=O)Nc1cccc(C)c1Nc1cc2c(cn1)cc(-c1cc(OC)cc(OC)c1)c(=O)n2CCCO` [Compound 29], the IC50 on FGFR4 is 0.0315 µM; on FGFR1, above 5000 nM; on FGFR3, above 5 µM; on FGFR2, above 5 µM.

For the compound `C=CC(=O)Nc1cccc(C)c1Nc1cc2c(cn1)cc(-c1c(Cl)c(OC)cc(OC)c1Cl)c(=O)n2CCCO` [Compound 30, N-(2-((3-(2,6-dichloro-3,5-dimethoxyphenyl)-1-(3-hydroxypropyl)-2-oxo-1,2-2H-1,6-naphthyridin-7-yl)amino)-3-methylphenyl)acrylamide], the IC50 at FGFR1 is above 5000 nM; on FGFR3, above 5 µM; on FGFR2 it was above 5 µM.

The values are drawn from EP4393921B1, “NALIDINONE COMPOUND AS FGFR4 INHIBITOR AND USE THEREOF” (Wenzhou Medical University, priority 2021, dated 2023).
